Measured values reported in US20140328852A1, “IMMUNOGENIC GLUTEN PEPTIDES AND USES THEREOF” (UNIVERSIDAD DE VALLADOLID, priority 2011, published 2014).

Tests used:
Assay type in all cases: cell-based, human
[1] = test system: dendritic cells derived from monocytes; assay: Cytokine mRNA expression in stimulated monocyte-derived dendritic cells; conditions: dendritic cells from healthy donors, peptide 100 μg/ml, 48 hours
autologous T lymphocytes = assay: Proliferation of autologous T lymphocytes in co-culture with peptide-stimulated dendritic cells; conditions: for proliferative response of autologous T lymphocytes (in words): celiac HLA-DQ2+ and non-celiac HLA-DQ2− samples; for proliferation rate: 4 days co-culture
Method: FIG. 4. […] The mean and standard deviation of an experiment performed in triplicate are shown, and which is representative of three independent experiments with similar results. Each experiment was performed with an untreated celiac patient with genotype HLA-DQ2^+ and parallel to a healthy non-celiac individual HLA-DQ2^− as a control (C).
Monocyte-derived dendritic cells serve as antigen presenting cells. Stimulation experiments carried out in the present invention included a positive proliferation control (T lymphocytes cultured in the presence of monocyte-derived dendritic cells pre-activated in the presence of lipopolysaccharide, LPS) and two negative controls: CD14-fraction enriched with cultured T lymphocytes i) in basal medium and ii) in the presence of monocyte-derived dendritic cells unstimulated.
(§1) Mononuclear cells from ABO-compatible peripheral blood were isolated by centrifugation on a density gradient, and magnetic beads with anti-CD14 antibodies to separate CD14+ monocytes, that were induced for 6 days to differentiate into immature dendritic cells by IL-4 and GM-CSF (confirmed by flow cytometry) were isolated too. These cells were first stimulated for 48 hours with the 8-mer peptide (100 μg/mL, 10 μg/mL, 1 μg/mL) and other known gliadin peptides: 19-mer (100 μg/mL) and 33-mer (100 μg/mL) and then a co-culture with autologous T lymphocytes was performed (population CD14-obtained above), in which dendritic cells act as antigen presenting cells. As negative and positive controls of stimulation, a CD14-cell culture without dendritic cells (basal), and CD14-cells stimulated with lipopolysaccharide (LPS) were used respectively. After 4 days, the cell proliferation rate was calculated according to the absorbance ratio of stimulated/unstimulated dendritic cells in co-culture with autologous T lymphocytes.

[2] = test system: dendritic cells derived from monocytes; assay: Phenotypic maturation of monocyte-derived dendritic cells (flow cytometry of membrane markers); conditions: dendritic cells from healthy controls, peptide 100 μg/mL, 48 hours
Method: FIG. 2. […] Shadowed histograms represent the expression of the co-stimulator markers (CD40, CD80, CD86) or activators (CD83) in dendritic cells. Empty histograms represent isotype controls. This experiment is representative of three independent experiments; each of them is performed by triplicate.
as §1

[3] = peptide 100 μg/ml, cells from celiac patients HLA-DQ2+, ratio stimulated/unstimulated dendritic cells
[4] = peptide 100 μg/ml, cells from non-celiac individuals HLA-DQ2−, ratio stimulated/unstimulated dendritic cells

Row | Substance | expression of IL-4 mRNA [1] [times] | expression of IL-12p40 mRNA [1] | proliferative response of autologous T lymphocytes (in words) (autologous T lymphocytes) | proliferation rate (autologous T lymphocytes; peptide 1 μg/ml, cells from celiac patients HLA-DQ2+) | proliferation rate (autologous T lymphocytes; peptide 1 μg/ml, cells from non-celiac individuals HLA-DQ2−) | proliferation rate (autologous T lymphocytes; peptide 10 μg/ml, cells from celiac patients HLA-DQ2+) | proliferation rate (autologous T lymphocytes; peptide 10 μg/ml, cells from non-celiac individuals HLA-DQ2−) | proliferation rate (autologous T lymphocytes; [3]) | proliferation rate (autologous T lymphocytes; [4]) | membrane expression of CD40 and CD80 markers [2] | membrane expression of CD83 or CD86 [2]
1 | 8-mer: eight amino acid gliadin peptide (SEQ ID NO: 2) generated in the gut of celiac patients by bacterial proteases (FPLQPQQP; listed as Triticum aestivum) | 79 | 0.4 times | induced a proliferative response | 1.27±0.005 | 1.04±0.039 | 1.69±0.005 | 1.28±0.034 | 2.09±0.029 | 1.51±0.108 | increased | not
2 | 19-mer: known gliadin peptide 19-mer (SEQ ID NO: 4) (LGQQQPFPPQQPYPQPQPF; listed as Triticum monococcum) | 7.7 | 0.4 times | did not induce proliferation |  |  |  |  | 1.06±0.011 | 1.03±0.039 | did not affect | did not affect
3 | 33-mer: known immunodominant α-gliadin peptide 33-mer (SEQ ID NO: 5) (LQLQPFPQPELPYPQPELPYPQPELPYPQPQPF; Gluten peptide 33-mer) | 0.001 | inhibited | did not induce proliferation |  |  |  |  | 1.04±0.005 | 1.04±0.018 | did not affect | did not affect
